{
  "source": "patent US5498632A",
  "about": "“Esters of acyl carnitines with long-chain aliphatic alcohols and pharmaceutical compositions containing same having antibacterial activity” (Sigma-Tau Industrie Farmaceutiche Riunite S.p.A., priority 1992, dated 1996)",
  "key": {"[1]": {"test_system": "murine lymphoid organs (spleen and thymus)", "experiment": "Test 2: weight of murine lymphoid organs after repeated oral administration", "type": "in vivo, mouse (male B6 D2 F1)", "conditions": "100 mg/kg/day for 7 consecutive days", "procedure": "Evaluation of the effect of repeated oral administrations of ST 722 on the weight of murine lymphoid organs (spleen and thymus).\n(§1) Male B6 D2 F1 mice (C. River) aged 7 weeks (7-8 animals each group) were orally treated with the substance ST 722 at the dose of 100 mg/kg/day for 7 consecutive days. Twenty-four hours after the last administration, the animals were sacrificed, the organs removed and weighed."}, "[2]": {"test_system": "lymphoid organs (spleen and thymus), splenocytes", "experiment": "Test 3: body, spleen and thymus weight and splenocyte concentration", "type": "in vivo, mouse (male B6 D2 F1)", "conditions": "100 mg/kg/day for 5 consecutive days, oral", "procedure": "Evaluation of the effect of repeated oral administrations of ST 722 on the body, spleen and thymus weight, and on the splenocyte concentration in mice.\nas §1, with “aged 10” for “aged 7”, “weeks (5” for “weeks (7-8”, “for 5” for “for 7”, “and weighed, and the splenocyte number determined.” for “and weighed.”"}, "[3]": {"test_system": "Bacillus subtilis (ATCC 6051)", "experiment": "MIC in broth, Gram+ strains", "type": "cell-based", "conditions": "ATCC6051, B. subtilis (ATCC 6051), Mueller-Hinton broth, 37° C., 18 hours, read-out: Minimal Inhibitory Concentration (MIC)", "summary_of_the_method": "(§2)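 Mueller-Hinton broth microdilution, 2-fold serial dilutions; final inoculum 5.0×10^4 CFU/ml; 37° C, 18 h, humidified.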"}, "[4]": {"test_system": "Staphylococcus aureus (ATCC 14154)", "experiment": "MIC in broth, Gram+ strains", "type": "cell-based", "conditions": "ATCC14154, S. aureus (ATCC 14154), Mueller-Hinton broth, 37° C., 18 hours, read-out: Minimal Inhibitory Concentration (MIC)", "summary_of_the_method": "as §2"}, "[5]": {"test_system": "Staphylococcus aureus (LC1)", "experiment": "MIC in broth, Gram+ strains", "type": "cell-based", "conditions": "S. aureus (LC1), Mueller-Hinton broth, 37° C., 18 hours, read-out: Minimal Inhibitory Concentration (MIC)", "summary_of_the_method": "as §2"}, "[6]": {"test_system": "Streptococcus faecalis (501)", "experiment": "MIC in broth, Gram+ strains", "type": "cell-based", "conditions": "Enterococcus faecalis; S. faecalis (501), Mueller-Hinton broth, 37° C., 18 hours; read-out: Minimal Inhibitory Concentration (MIC)", "summary_of_the_method": "as §2"}, "[7]": {"test_system": "Streptococcus faecalis (509)", "experiment": "MIC in broth, Gram+ strains", "type": "cell-based", "conditions": "Enterococcus faecalis; S. faecalis (509), Mueller-Hinton broth, 37° C., 18 hours; read-out: Minimal Inhibitory Concentration (MIC)", "summary_of_the_method": "as §2"}, "[8]": {"test_system": "Streptococcus faecalis (516)", "experiment": "MIC in broth, Gram+ strains", "type": "cell-based", "conditions": "Enterococcus faecalis; S. faecalis (516), Mueller-Hinton broth, 37° C., 18 hours; read-out: Minimal Inhibitory Concentration (MIC)", "summary_of_the_method": "as §2"}, "Gram+ bacterial strains": {"test_system": "Gram+ bacterial strains", "experiment": "Mean MIC in broth and resistant strain number, Gram+ strains", "type": "cell-based", "conditions": "18 h, versus susceptible strains", "procedure": "Evaluation of the Minimal Inhibitory Concentration (MIC) in broth of 15 new substances for Gram+ bacterial strains.\nThe following strains were used: Staphylococcus aureus (4); Streptococcus faecalis (8); Bacillus pumilus (1); Bacillus subtilis (1).\nMICs were determined by a standard microdilution test, using serial two-fold dilutions of the substances in Mueller-Hinton broth.\nThe inoculum was prepared from an overnight culture in Mueller-Hinton broth matching the 0.5 Mc Farland (turbidity) standard (BRAY W. E., Clinical Laboratory Methods, 5th Ed. C. V. MOSBY, St. Louis, Mo. 1957), and was adjusted to a final concentration of 5.0×10^4 colony-forming units/ml.\nEqual volumes (0.1 ml) of both bacterial suspensions and substance solutions were distributed in microtiter plates (Falcon, 96 wells, round bottom), and then placed in a humidified incubator (37° C.) for 18 hours.\nThe results, in terms of MIC values, resistant strain number and mean MIC values versus susceptible strains, are illustrated in Tables 1-6."}, "[9]": {"test_system": "Helicobacter pylori NCTC 11637", "experiment": "In vitro synergistic effect of ST 722 and Bismuth Subcitrate", "type": "cell-based", "procedure": "CBS from the commercially available product De-Nol® (Gist-Brocades, Netherland), i.e. ammonium and potassium double salt of colloidal bismuth citrate hydroxide, was utilized by preparing a suspension of 10 mg/ml CBS in 1N NaOH. After diluting 1:10 in Mueller-Hinton broth, 8 serial two-fold dlitutions in the same medium were made. The compound ST 722 was dissolved in Mueller-Hinton broth at a starting concentration of 100 mcg/ml, then 7 serial two-fold dilutions were carried out.\nThe \"in vitro\" anti-Helicobacter activity of both CBS and ST 722, alone and in association, was tested by utilizing the strain H. pylori NCTC 11637.\nA 24-hour culture of Helicobacter in Columbia agar medium supplemented with Vitox (Oxoid) and 7% defribinated horse blood is washed with Mueller-Hinton broth.\nFollowing densitometric evaluation (reading at 600 nm), the bacterial suspension was adjusted to a concentration of 1.0×10^9 cells/ml and 0.2-ml volumes were distributed into each well of a 96-well U-bottomed microtiter plate.\nA 1-μl volume of this bacterial suspension was then distributed, by means of a Steers-type replicator apparatus, into the wells of microtiter plates containing the substances, either alone or in association. The final bacterial inoculum contained approximately 1.0×10^6 bacterial cells.\nThe procedure described by Garrod et al. (GARROD, L. P. and WATERWORTH, P. M., 1962. Methods of testing combined antibiotic bactericidal action and the significance of the results. J. Clin. Pathol. 15, 328-338) was utilized.\nBriefly, 250-μl volumes of each test substance, either alone or admixed in all the possible combinations, were additioned to 4.5 ml of Mueller-Hinton agar containing 5% defribinated horse serum. Volumes of 0.2 ml/well of the resulting solution were distributed into the wells of a microtiter plate, then seeded with 1 μl/well of a standardized bacterial suspension, and finally incubated for 48 hours at 37° C. in a 10% CO2 atmosphere.\nIn order to evaluate the results obtained with combinations of antibiotics it was utilized the method (KROGSTAD, D. J. and MOELLERING, R. C., 1983. Antimicrobial combinations. In LORIAN, V., Antibiotics in Laboratory Medicine, 15, 537-549) based on the calculation of the Fractional Inhibitory Concentration Index (FIC index).\nFIC index is calculated as follows: [formula] Where (A) is the MIC of substance A in the association and (MICA) is the […] of the organism to substance A alone. FICA is the fractional inhibitory concentration of substance A. (B), (MICB) and FICB are defined in the same fashion for substance B.\nBased on these criteria, the effect of a combination of 2 substances is referred to as 'synergistic\" when the FIC index is ≤0.5, \"additive\" with a FIC index=1, and \"antagonist\" when FIC index is >1."}},
  "data": [
    {"compound": "CCCCCCCCCCCOC(=O)CC(C[N+](C)(C)C)OC(=O)CC(C)C", "note": "[ST 722, Isovaleryl-L-Carnitine Undecyl Ester Chloride]", "values": [
      {"measurement": "Body weight", "setting": "[1]", "value": "22.74 ± 0.37", "unit": "g"},
      {"measurement": "Spleen weight", "setting": "[1]", "value": "77.88 ± 2.38", "unit": "mg"},
      {"measurement": "Thymus weight", "setting": "[1]", "value": "52.88 ± 3.20", "unit": "mg"},
      {"measurement": "immunotoxic effect on the parameters examined", "setting": "[1]", "value": "did not provoke any immunotoxic effect"},
      {"measurement": "Body weight", "setting": "[2]", "value": "26.50 ± 0.53", "unit": "g"},
      {"measurement": "Spleen weight", "setting": "[2]", "value": "73.25 ± 3.84", "unit": "mg"},
      {"measurement": "Thymus weight", "setting": "[2]", "value": "38.80 ± 3.01", "unit": "mg"},
      {"measurement": "specific immunotoxic effects on the considered parameters", "setting": "[2]", "value": "lack of specific immunotoxic effects"},
      {"measurement": "MIC", "setting": "[3]", "value": 3.12, "unit": "µg/mL"},
      {"measurement": "MIC", "setting": "[4]", "value": 3.12, "unit": "µg/mL"},
      {"measurement": "MIC", "setting": "[5]", "value": 1.56, "unit": "µg/mL"},
      {"measurement": "MIC", "setting": "[6]", "value": 3.12, "unit": "µg/mL"},
      {"measurement": "MIC", "setting": "[7]", "value": 3.12, "unit": "µg/mL"},
      {"measurement": "MIC", "setting": "[8]", "value": 1.56, "unit": "µg/mL"},
      {"measurement": "MIC", "setting": "Gram+ bacterial strains", "value": 3.12, "unit": "µg/mL"},
      {"measurement": "MIC", "setting": "[9]; Helicobacter pylori, NCTC11637, substance alone, H. pylori NCTC 11637, 48 hours, read-out: MIC", "value": 1.56, "unit": "µg/mL"},
      {"measurement": "FIC (fractional inhibitory concentration)", "setting": "[9]; ST 722 with CBS", "value": 0.12}
    ]}
  ]
}
